From paper PMC4492759, “Pharmacological profiling of the hemodynamic effects of cannabinoid ligands: a combined in vitro and in vivo approach” (Pharmacology Research & Perspectives, 2015)

Experiments:
mouse GPR55 = target: T1, mouse GPR55 (Mus musculus, UniProt Q3UJF0); assay: [35S]-GTPγS binding, membranes of HEK293s cells transfected with mouse GPR55; type: biochemical; settings: agonist mode; mean ± SEM, at least three experiments; read-out: GPR55 EC50, Mouse
T1 construct: expressed in transfected cells; host or cells: HEK293s, transient transfection; membranes prepared
Procedure: HEK293s cells were transiently transfected with cDNA encoding rat or mouse CB1 or GPR55 and membranes were prepared as previously described (Ryberg et al. [2007]). In short, agonist activities in [^35S]-GTPγS binding assays were determined by the addition of ligand at 30°C for 45 min in membrane buffer [50 mmol/L NaCl, 5 mmol/L MgCl2, 0.5 mmol/L EDTA, 25 mmol/L HEPES (all Sigma, Gillingham, Dorset, UK); pH 7.4] containing 0.05 μg μL^−1 of membrane protein with 0.01% BSA, 25 μmol/L guanosine 5′-diphosphate (GDP), 100 μmol/L dithiothreitol (DTT), and 0.53 nmol/L [^35S]GTPγS (PerkinElmer) in a final volume of 200 μL. Antagonist assays were performed similarly, with the addition of an EC80 concentration of CP55940 as a nonselective CB1/CB2 agonist in conjunction with the ligand to be tested. Nonspecific binding was determined in the presence of 20 μmol/L unlabeled GTPγS. The reaction was terminated by addition of ice-cold wash buffer (50 mmol/L Tris-HCl, 5 mmol/L MgCl2, 50 mmol/L NaCl; pH 7.4) followed by rapid filtration under vacuum through 96-well B-glass fiber filter plates (PerkinElmer, Waltham, Massachusetts, USA) using a Biomek FX (Beckman Coulter, Bromma, Sweden). The filter plates were dried (30 min at 50°C) before scintillation liquid (PerkinElmer) was added onto the filters and the bound radioactivity was determined using a scintillation counter (Wallac). Data were fitted with a four-parameter logistic fit using the equation y = A + (B − A)/1 + ((C/x)^D), where A is no activation, B is full activation, C is the EC50, and D is the Hill slope. All data were based on at least three independent experiments.

[1] = test system: anesthetized Sprague–Dawley (SD) rats; assay: Hemodynamic responses (MABP, HR) in anesthetized normotensive rats; type: in vivo, rat; settings: O-1602 5–100 ng kg−1 i.v.
Procedure: (§1) All experiments performed under terminal anesthesia were carried out following approval by Robert Gordon University Animal Ethics Panel. Anesthesia was induced in male SD rats (200–300 g) by sodium pentobarbital [60 mg kg^−1 intraperitoneal (i.p.) injection]. Male/female WT and GPR55^−/− mice (25–35 g) were anesthetized with a mixture of ketamine (120 mg kg^−1) and xylazine (16 mg kg^−1) via i.p. injection. For both species the trachea was cannulated to allow artificial respiration with room air when required (54 strokes min^−1 and tidal volume 1.5 mL 100 g^−1 for rats; 120 strokes min^−1 and tidal volume 100 μL 10 g^−1 for mice) and the left carotid artery and right jugular vein were cannulated for the measurement of arterial BP (MLT844 Physiological Pressure Transducer; AD Instruments, Oxford, UK) and drug administration, respectively. Core temperature was monitored continuously and maintained at 37–38°C with the aid of a Vetcare heated pad (Harvard Apparatus Ltd., Boston, Massachusetts, USA). Anesthesia was monitored by foot pinch reflex and maintained throughout by administration of additional doses of anesthetic (rats: 3–4 mg kg^−1 of sodium pentobarbital salt i.v.; mice: 50 μL 25 g^−1of ketamine/xylazine i.p.) every 40 min, or as required. […] Heart rate (HR) was calculated from the ECG and recorded throughout the entire experimental period. After a stabilization period of approximately 15 min dose–response experiments were carried out as described below.
(§2) As a preliminary assessment of the effects of ACEA on arterial BP, a single bolus intravenous dose (3 mg kg^−1; selected from the literature as a dose known to produce a depressor response) was given to anesthetized rats. […] The time interval between drug administrations was 10–15 min to allow BP values to return to predrug values.

[2] = test system: anesthetized WT and GPR55−/− mice; assay: Hemodynamic responses (MABP, HR) in anesthetized WT and GPR55−/− mice; type: in vivo, mouse; settings: O-1602 5–100 ng kg−1 i.v.; WT mice
Procedure: as §1, §2

conscious SHR = assay: Blood pressure and heart rate responses in conscious hypertensive rats (SHR)
Procedure: Following anesthesia with isoflurane (4% in air followed by 2% during surgery) with supplemental Romefen® (10 mg kg^−1 s.c.; Merial SAS, Lyon, France) for analgesia, a polyethylene catheter (PE10) was inserted into the abdominal aorta, proximal to the kidneys, for BP recording, and a silicon catheter (SEDAT, Irigny, France) was inserted into the jugular vein for drug administration. Both catheters were tunneled subcutaneously to the neck region and anchored to an inert button. Immediately after completion of surgery the rats were connected to a tethered swivel system with a continuous intra-arterial infusion (700 μL h^−1) of 0.9% NaCl containing melagatran (10 mg L^−1) in order to keep the arterial line open. The anesthetic and surgical procedures for the CB1^−/−, GPR55^−/−, and WT mice used for the studies in conscious animals were identical to those in the rat, with the exception that the arterial catheter was placed in the descending aorta via the carotid artery. Following the completion of surgery, the animals were allowed to recover for 24 h with free access to food and water.
In order to take account of any vehicle responses and variations in the time course of the responses to the various cannabinoid ligands, a standard approach was adopted to measuring the BP responses in all experimental models. […] All drug responses were compared directly with the vehicle responses to determine the exact magnitude of the response to the ligand.

[3] = test system: conscious WT, CB1−/− and GPR55−/− mice; assay: Blood pressure and heart rate responses in conscious mice (WT, CB1−/−, GPR55−/−); settings: for HR bradycardic response - area above the curve / MABP depressor response - area above the curve: metoprolol pretreated
[4] = O-1602 5 mg kg−1, +AM281 (10 mg kg−1), metoprolol pretreated
[5] = O-1602 5 mg kg−1, +CBD (5 mg kg−1), metoprolol pretreated
[6] = O-1602 5 mg kg−1, +CBD and AM281, metoprolol pretreated
[7] = O-1602 10 mg kg−1, +AM281 (10 mg kg−1), metoprolol pretreated
[8] = O-1602 10 mg kg−1, +CBD (5 mg kg−1), metoprolol pretreated
[9] = O-1602 10 mg kg−1, +CBD and AM281, metoprolol pretreated
[10] = O-1602 10 mg kg−1, Control, metoprolol pretreated
[11] = O-1602 20 mg kg−1, +AM281 (10 mg kg−1), metoprolol pretreated
[12] = O-1602 20 mg kg−1, +CBD (5 mg kg−1), metoprolol pretreated
[13] = O-1602 20 mg kg−1, +CBD and AM281, metoprolol pretreated
[14] = O-1602 20 mg kg−1, Control, metoprolol pretreated
[15] = O-1602 5 mg kg−1, +CBD (5 mg kg−1)
[16] = O-1602 5 mg kg−1, column Control
[17] = O-1602 10 mg kg−1, +CBD (5 mg kg−1)
[18] = O-1602 10 mg kg−1, column Control
[19] = O-1602 15 mg kg−1, +CBD (5 mg kg−1)
[20] = O-1602 15 mg kg−1, column Control

T1 sequence (Q3UJF0 whole entry): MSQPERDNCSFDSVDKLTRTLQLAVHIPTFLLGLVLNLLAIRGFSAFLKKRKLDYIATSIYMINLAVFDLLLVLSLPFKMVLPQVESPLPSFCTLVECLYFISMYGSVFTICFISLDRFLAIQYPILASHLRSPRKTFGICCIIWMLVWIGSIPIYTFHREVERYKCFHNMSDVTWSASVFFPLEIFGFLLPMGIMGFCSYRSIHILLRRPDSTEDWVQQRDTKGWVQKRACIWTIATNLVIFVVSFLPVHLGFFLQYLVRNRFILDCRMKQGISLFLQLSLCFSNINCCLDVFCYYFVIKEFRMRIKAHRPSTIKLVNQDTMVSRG

## C=C(C)[C@@H]1CCC(C)=C[C@H]1c1c(C)cc(O)cc1O [O-1602]
Mouse GPR55
  EC50: 12 ± 4 nM
[1]
  changes in MABP or HR over and above vehicle: did not produce any changes
[2]
  changes in MABP or HR over and above vehicle: did not produce any changes
Conscious SHR; [4]
  HR tachycardic response – area under the curve: 39 ± 11 arbitrary units
  MABP depressor response - area above the curve: 196 ± 44 arbitrary units
Conscious SHR; [5]
  HR tachycardic response – area under the curve: 68 ± 11 arbitrary units
  MABP depressor response - area above the curve: 189 ± 32 arbitrary units
Conscious SHR; [6]
  HR tachycardic response – area under the curve: 53 ± 22 arbitrary units
  MABP depressor response - area above the curve: 41 ± 17 arbitrary units
Conscious SHR; O-1602 5 mg kg−1, Control, metoprolol 10 mg kg−1 i.v. pretreated
  MABP depressor response - area above the curve: 59 ± 21 arbitrary units
Conscious SHR; O-1602 5 mg kg−1, Control, metoprolol pretreated
  HR tachycardic response – area under the curve: 61 ± 24 arbitrary units
Conscious SHR; [7]
  HR tachycardic response – area under the curve: 40 ± 12 arbitrary units
  MABP depressor response - area above the curve: 160 ± 31 arbitrary units
Conscious SHR; [8]
  HR tachycardic response – area under the curve: 79 ± 29 arbitrary units
  MABP depressor response - area above the curve: 23 ± 17 arbitrary units
Conscious SHR; [9]
  HR tachycardic response – area under the curve: 37 ± 32 arbitrary units
  MABP depressor response - area above the curve: 180 ± 29 arbitrary units
Conscious SHR; [10]
  HR tachycardic response – area under the curve: 18 ± 8 arbitrary units
  MABP depressor response - area above the curve: 56 ± 22 arbitrary units
Conscious SHR; [11]
  HR tachycardic response – area under the curve: 56 ± 26 arbitrary units
  MABP depressor response - area above the curve: 191 ± 30 arbitrary units
Conscious SHR; [12]
  HR tachycardic response – area under the curve: 98 ± 32 arbitrary units
  MABP depressor response - area above the curve: 73 ± 38 arbitrary units
Conscious SHR; [13]
  HR tachycardic response – area under the curve: 38 ± 16 arbitrary units
  MABP depressor response - area above the curve: 199 ± 29 arbitrary units
Conscious SHR; [14]
  HR tachycardic response – area under the curve: 72 ± 13 arbitrary units
  MABP depressor response - area above the curve: 26 ± 16 arbitrary units
Conscious SHR; O-1602 alone, three ascending doses 5, 10, and 20 mg kg−1 spaced 20 min apart
  changes in MABP or HR: did not induce any changes
[3]; O-1602 5 mg kg−1, +AM281
  HR bradycardic response - area above the curve: 55.3 ± 20.9 arbitrary units
  MABP depressor response - area above the curve: 64.6 ± 17.5 arbitrary units
[3]; O-1602 5 mg kg−1, +CBD & AM281
  HR bradycardic response - area above the curve: 154.8 ± 61.7 arbitrary units
[3]; [15]
  HR bradycardic response - area above the curve: 17.4 ± 11.7 arbitrary units
  MABP depressor response - area above the curve: 99.6 ± 25.8 arbitrary units
[3]; O-1602 5 mg kg−1, +CBD and AM281
  MABP depressor response - area above the curve: 73.3 ± 24.5 arbitrary units
[3]; [16]
  HR bradycardic response - area above the curve: 41.1 ± 20.8 arbitrary units
  MABP depressor response - area above the curve: 91.9 ± 38.2 arbitrary units
[3]; O-1602 10 mg kg−1, +AM281
  HR bradycardic response - area above the curve: 130.5 ± 20.5 arbitrary units
  MABP depressor response - area above the curve: 95.2 ± 6.5 arbitrary units
[3]; O-1602 10 mg kg−1, +CBD & AM281
  HR bradycardic response - area above the curve: 298.2 ± 111.7 arbitrary units
[3]; [17]
  HR bradycardic response - area above the curve: 186.8 ± 42.1 arbitrary units
  MABP depressor response - area above the curve: 73.5 ± 17.8 arbitrary units
[3]; O-1602 10 mg kg−1, +CBD and AM281
  MABP depressor response - area above the curve: 114.6 ± 17.6 arbitrary units
[3]; [18]
  HR bradycardic response - area above the curve: 48.7 ± 25.4 arbitrary units
  MABP depressor response - area above the curve: 44.1 ± 9.6 arbitrary units
[3]; O-1602 15 mg kg−1, +AM281
  HR bradycardic response - area above the curve: 183.1 ± 50.9 arbitrary units
  MABP depressor response - area above the curve: 101.5 ± 4.1 arbitrary units
[3]; O-1602 15 mg kg−1, +CBD & AM281
  HR bradycardic response - area above the curve: 286.6 ± 105.4 arbitrary units
[3]; [19]
  HR bradycardic response - area above the curve: 197.1 ± 17.1 arbitrary units
  MABP depressor response - area above the curve: 148.9 ± 17.1 arbitrary units
[3]; O-1602 15 mg kg−1, +CBD and AM281
  MABP depressor response - area above the curve: 119.7 ± 18.1 arbitrary units
[3]; [20]
  HR bradycardic response - area above the curve: 95.3 ± 6.5 arbitrary units
  MABP depressor response - area above the curve: 61.3 ± 10.9 arbitrary units
[3]; O-1602, conscious CB1−/− mice
  effect on MABP: dose-dependent depressor response
[3]; O-1602 alone, highest dose tested, conscious WT mice
  effect on HR: transient bradycardia
[3]; O-1602 alone, conscious WT mice
  effect on MABP: no effect
[3]; O-1602 in the presence of AM281 (10 mg kg−1), GPR55−/− mice
  depressor response: did not elicit a depressor response
